Assays:
Podosphaera leucotricha = assay: Podosphaera test (apple)/protective; type: in vivo; settings: 240 h, protective, application rate 100 g/ha, evaluation 10 days after inoculation, read-out: Efficacy in %
Description: (§1) • Solvents: 24.5 parts by weight of acetone • 24.5 parts by weight of dimethylacetamide • Emulsifier: 1 part by weight of alkylaryl polyglycol ether
(§2) To produce a suitable preparation of active compound, 1 part by weight of active compound is mixed with the stated amounts of solvents and emulsifier, and the concentrate is diluted with water to the desired concentration.
To test for protective activity, young plants are sprayed with the preparation of active compound at the stated application rate. After the spray coating has dried on, the plants are inoculated with an aqueous spore suspension of the apple mildew pathogen Podosphaera leucotricha. The plants are then placed in a greenhouse at about 23° C. and a relative atmospheric humidity of about 70%.
(§3) Evaluation is carried out 10 days after the inoculation. 0% means an efficacy which corresponds to that of the control, whereas an efficacy of 100% means that no infection is observed.

Puccinia recondita = assay: Puccinia test (wheat)/protective; type: in vivo; settings: evaluation 10 days after inoculation
Description: • a) Solvent: 50 parts by weight of N,N-dimethylacetamide Emulsifier: 1 part by weight of alkylaryl polyglycol ether • b) Solvent: 25 parts by weight of N,N-dimethylacetamide Emulsifier: 0.6 part by weight of alkylaryl polyglycol ether To produce a suitable preparation of active compound, 1 part by weight of active compound is mixed with the stated amounts of solvent and emulsifier, and the concentrate is diluted with water to the desired concentration. To test for protective activity, young plants are sprayed with the preparation of active compound at the stated application rate. After the spray coating has dried on, the plants are sprayed with a conidia suspension of Puccinia recondita. The plants remain in an incubation cabin at 20° C. and 100% relative atmospheric humidity for 48 hours. The plants are then placed in a greenhouse at a temperature of about 20° C. and a relative atmospheric humidity of 80% to promote the development of rust pustules. Evaluation is carried out 10 days after the inoculation. 0% means an efficacy which corresponds to that of the control, whereas an efficacy of 100% means that no infection is observed.

Sphaerotheca fuliginea = assay: Sphaerotheca test (cucumber)/protective; type: in vivo; settings: protective, application rate 750 g/ha, evaluation 7 days after inoculation
Description: Solvent: 49 parts by weight of N,N-dimethylformamide Emulsifier: 1 part by weight of alkylaryl polyglycol ether To produce a suitable preparation of active compound, 1 part by weight of active compound is mixed with the stated amounts of solvent and emulsifier, and the concentrate is diluted with water to the desired concentration. To test for protective activity, young cucumber plants are sprayed with the preparation of active compound at the stated application rate. 1 day after treatment the plants are inoculated with a spore suspension of Sphaerotheca fuliginea. The plants are then placed in a greenhouse at a relative atmospheric humidity of 70% and a temperature of 23° C. Evaluation is carried out 7 days after the inoculation. 0% means an efficacy which corresponds to that of the control, whereas an efficacy of 100% means that no infection is observed.

[1] = logP determination by HPLC on reversed-phase column (C 18), EEC Directive 79/831 Annex V.A8; type: physicochemical; settings: reversed-phase HPLC column (C 18), pH 2.3, 0.1% aqueous phosphoric acid and acetonitrile, 43° C.
Description: The determination of the logP values given in the preparation examples and tables above is carried out in accordance with EEC Directive 79/831 Annex V.A8 by HPLC (High Performance Liquid Chromatography) on a reversed-phase column (C 18). Temperature: 43° C. The determination is carried out in the acidic range at pH 2.3 using the mobile phases, 0.1% aqueous phosphoric acid and acetonitrile; linear gradient from 10% acetonitrile to 90% acetonitrile. Calibration is carried out using unbranched alkan-2-ones (of 3 to 16 carbon atoms) with known logP values (determination of the logP values by the retention times using linear interpolation between two successive alkanones).

Venturia inaequalis = assay: Venturia test (apple)/protective; type: in vivo; settings: protective, application rate 100 g/ha, evaluation 10 days after inoculation; for pest or weed control at 100 g/ha: Venturia inaequalis, 240 h, read-out: Efficacy in %
Description: as §1, §2
To test for protective activity, young plants are sprayed with the preparation of active compound at the stated application rate. After the spray coating has dried on, the plants are inoculated with an aqueous conidia suspension of the apple scab pathogen Venturia inaequalis and then remain in an incubation cabin at about 20° C. and 100% relative atmospheric humidity for 1 day.
The plants are then placed in a greenhouse at about 21° C. and a relative atmospheric humidity of about 90%.
as §3

Botrytis cinerea = assay: Botrytis test (bean)/protective; type: in vivo; settings: protective, application rate 500 g/ha, evaluation 2 days after inoculation; for pest or weed control at 500 g/ha: Botrytis cinerea, 48 h, read-out: Efficacy in %
Description: as §1, §2
To test for protective activity, young plants are sprayed with the preparation of active compound at the stated application rate. After the spray coating has dried on, 2 small pieces of agar colonized by Botrytis cinerea are placed onto each leaf. The inoculated plants are placed in a dark chamber at about 20° C. and 100% relative atmospheric humidity.
2 days after the inoculation, the size of the infected areas on the leaves is evaluated. 0% means an efficacy which corresponds to that of the control, whereas an efficacy of 100% means that no infection is observed.

[2] = tested on: Erysiphe graminis f.sp. hordei; assay: Erysiphe test (barley)/protective; type: in vivo; settings: protective, application rate 500 g/ha, evaluation 7 days after inoculation
Description: Solvent: 25 parts by weight of N,N-dimethylacetamide Emulsifier: 0.6 part by weight of alkylaryl polyglycol ether To produce a suitable preparation of active compound, 1 part by weight of active compound is mixed with the stated amounts of solvent and emulsifier, and the concentrate is diluted with water to the desired concentration. To test for protective activity, young plants are sprayed with the preparation of active compound at the stated application rate. After the spray coating has dried on, the plants are dusted with spores of Erysiphe graminis f.sp. hordei. The plants are placed in a greenhouse at a temperature of about 20° C. and a relative atmospheric humidity of about 80% to promote the development of mildew pustules. Evaluation is carried out 7 days after the inoculation. 0% means an efficacy which corresponds to that of the control, whereas an efficacy of 100% means that no infection is observed.

[3] = wheat; application rate 500 g/ha; solvent/emulsifier a)
[4] = wheat; application rate 500 g/ha; solvent/emulsifier b)

CC(CC(C)(C)C)c1ccccc1NC(=O)c1c(C(F)(F)F)nn(C)c1Cl (stereo not drawn)
pest or weed control at 100 g/ha (Podosphaera leucotricha): 97%

CCC(C)(C)CC(C)c1ccccc1NC(=O)c1cn(C)nc1C(F)(F)F (stereo not drawn)
Efficacy in % (Puccinia recondita; [3]): 100%

Cc1nc(Cl)sc1C(=O)Nc1ccccc1C(C)CC(C)(C)C (stereo not drawn)
Efficacy in % (Puccinia recondita; [3]): 100%

Cc1occc1C(=O)Nc1ccccc1C(C)CC(C)(C)C (stereo not drawn)
Efficacy in % (Puccinia recondita; [4]): 100%

CC(F)c1nn(C)cc1C(=O)Nc1ccccc1C(C)CC(C)(C)C (stereo not drawn)
Efficacy in % (Sphaerotheca fuliginea): 90%

CC(CC(C)(C)C)c1ccccc1NC(=O)c1cn(C)nc1C(Cl)Cl (stereo not drawn) [Example 1]
chromatographic logP [1]: 4.02

Cn1cc(C(=O)Cl)c(C(Cl)Cl)n1 [Example (II-1), 3-dichloromethyl-1-methyl-1H-pyrazole-4-carbonyl chloride]
chromatographic logP [1]: 1.8

Cc1ccsc1C(=O)Nc1ccccc1C(C)CC(C)(C)C (stereo not drawn) [drawing 85]
pest or weed control at 100 g/ha (Podosphaera leucotricha): 85%

CCC(C)(C)CC(C)c1ccccc1NC(=O)C1=C(C)OCCS1 (stereo not drawn) [drawing 86]
pest or weed control at 100 g/ha (Podosphaera leucotricha): 94%

CCC(C)(C)CC(C)c1ccccc1NC(=O)c1ccoc1C (stereo not drawn) [drawing 87]
pest or weed control at 100 g/ha (Podosphaera leucotricha): 91%

CCC(C)(C)CC(C)c1ccccc1NC(=O)c1sccc1C (stereo not drawn) [drawing 88]
pest or weed control at 100 g/ha (Podosphaera leucotricha): 98%

CC(CC(C)(C)C)c1ccccc1NC(=O)c1cn(C)nc1C(F)(F)F (stereo not drawn) [drawing 89]
pest or weed control at 100 g/ha (Podosphaera leucotricha): 95%

CCc1nn(C)c(Cl)c1C(=O)Nc1ccccc1C(C)CC(C)(C)C (stereo not drawn) [drawing 90]
pest or weed control at 100 g/ha (Podosphaera leucotricha): 96%

CC(CC(C)(C)C)c1ccccc1NC(=O)c1cn(C)nc1Cl (stereo not drawn) [drawing 91]
pest or weed control at 100 g/ha (Podosphaera leucotricha): 100%

Cc1nc(C(F)(F)F)c(C(=O)Nc2ccccc2C(C)CC(C)(C)C)s1 (stereo not drawn) [drawing 93]
pest or weed control at 100 g/ha (Podosphaera leucotricha): 100%

Cc1ccsc1C(=O)Nc1ccccc1C(C)CC(C)(C)C (stereo not drawn) [drawing 94]
pest or weed control at 100 g/ha (Venturia inaequalis): 96%

CC1=C(C(=O)Nc2ccccc2C(C)CC(C)(C)C)SCCO1 (stereo not drawn) [drawing 95]
pest or weed control at 100 g/ha (Venturia inaequalis): 100%

CCC(C)(C)CC(C)c1ccccc1NC(=O)C1=C(C)OCCS1 (stereo not drawn) [drawing 96]
pest or weed control at 100 g/ha (Venturia inaequalis): 100%

CCC(C)(C)CC(C)c1ccccc1NC(=O)c1ccoc1C (stereo not drawn) [drawing 97]
pest or weed control at 100 g/ha (Venturia inaequalis): 93%

CCC(C)(C)CC(C)c1ccccc1NC(=O)c1sccc1C (stereo not drawn) [drawing 98]
pest or weed control at 100 g/ha (Venturia inaequalis): 99%

CC(CC(C)(C)C)c1ccccc1NC(=O)c1cn(C)nc1C(F)(F)F (stereo not drawn) [drawing 99]
pest or weed control at 100 g/ha (Venturia inaequalis): 95%

CCc1nn(C)c(Cl)c1C(=O)Nc1ccccc1C(C)CC(C)(C)C (stereo not drawn) [drawing 100]
pest or weed control at 100 g/ha (Venturia inaequalis): 92%

CC(CC(C)(C)C)c1ccccc1NC(=O)c1cn(C)nc1Cl (stereo not drawn) [drawing 101]
pest or weed control at 100 g/ha (Venturia inaequalis): 100%

CC(CC(C)(C)C)c1ccccc1NC(=O)c1cn(C)nc1C(F)(F)F (stereo not drawn) [drawing 102]
Efficacy in % (Venturia inaequalis): 99%

Cc1nc(C(F)(F)F)c(C(=O)Nc2ccccc2C(C)CC(C)(C)C)s1 (stereo not drawn) [drawing 103]
pest or weed control at 100 g/ha (Venturia inaequalis): 99%

Cc1ccsc1C(=O)Nc1ccccc1C(C)CC(C)(C)C (stereo not drawn) [drawing 104]
pest or weed control at 500 g/ha (Botrytis cinerea): 100%

CC1=C(C(=O)Nc2ccccc2C(C)CC(C)(C)C)SCCO1 (stereo not drawn) [drawing 105]
pest or weed control at 500 g/ha (Botrytis cinerea): 95%

CCC(C)(C)CC(C)c1ccccc1NC(=O)C1=C(C)OCCS1 (stereo not drawn) [drawing 106]
pest or weed control at 500 g/ha (Botrytis cinerea): 100%

CCC(C)(C)CC(C)c1ccccc1NC(=O)c1ccoc1C (stereo not drawn) [drawing 107]
pest or weed control at 500 g/ha (Botrytis cinerea): 88%

CCC(C)(C)CC(C)c1ccccc1NC(=O)c1sccc1C (stereo not drawn) [drawing 108]
pest or weed control at 500 g/ha (Botrytis cinerea): 100%

CC(CC(C)(C)C)c1ccccc1NC(=O)c1cn(C)nc1C(F)(F)F (stereo not drawn) [drawing 109]
pest or weed control at 500 g/ha (Botrytis cinerea): 100%

CC(CC(C)(C)C)c1ccccc1NC(=O)c1cn(C)nc1Cl (stereo not drawn) [drawing 110]
pest or weed control at 500 g/ha (Botrytis cinerea): 95%

CC(CC(C)(C)C)c1ccccc1NC(=O)c1cn(C)nc1C(F)(F)F (stereo not drawn) [drawing 111]
Efficacy in % (Botrytis cinerea): 97%

Cc1nc(C(F)(F)F)c(C(=O)Nc2ccccc2C(C)CC(C)(C)C)s1 (stereo not drawn) [drawing 112]
pest or weed control at 500 g/ha (Botrytis cinerea): 95%

Cc1nc(C)c(C(=O)Nc2ccccc2C(C)CC(C)(C)C)s1 (stereo not drawn) [drawing 113]
Efficacy in % (Puccinia recondita; [3]): 100%

CCC(C)(C)CC(C)c1ccccc1NC(=O)C1=C(C)OCCS1 (stereo not drawn) [drawing 114]
Efficacy in % (Puccinia recondita; [3]): 100%

CC(CC(C)(C)C)c1ccccc1NC(=O)c1cn(C)nc1C(F)(F)F (stereo not drawn) [drawing 117]
Efficacy in % (Puccinia recondita; [3]): 100%

CCc1nn(C)c(Cl)c1C(=O)Nc1ccccc1C(C)CC(C)(C)C (stereo not drawn) [drawing 118]
Efficacy in % (Puccinia recondita; [3]): 100%

Cc1ccsc1C(=O)Nc1ccccc1C(C)CC(C)(C)C (stereo not drawn) [drawing 119]
Efficacy in % (Puccinia recondita; [4]): 100%

CC1=C(C(=O)Nc2ccccc2C(C)CC(C)(C)C)SCCO1 (stereo not drawn) [drawing 121]
Efficacy in % (Puccinia recondita; [4]): 100%

CCC(C)(C)CC(C)c1ccccc1NC(=O)c1ccoc1C (stereo not drawn) [drawing 122]
Efficacy in % (Puccinia recondita; [4]): 100%

Cc1nc(C)c(C(=O)Nc2ccccc2C(C)CC(C)(C)C)s1 (stereo not drawn) [drawing 123]
Efficacy in % (Sphaerotheca fuliginea): 95%

Cc1ccsc1C(=O)Nc1ccccc1C(C)CC(C)(C)C (stereo not drawn) [drawing 124]
Efficacy in % (Sphaerotheca fuliginea): 95%

Cc1nc(C)c(C(=O)Nc2ccccc2C(C)CC(C)(C)C)s1 (stereo not drawn) [drawing 126]
Efficacy in % [2]: 100%

Cc1ccsc1C(=O)Nc1ccccc1C(C)CC(C)(C)C (stereo not drawn) [drawing 127]
Efficacy in % [2]: 100%

CCC(C)(C)CC(C)c1ccccc1NC(=O)C1=C(C)OCCS1 (stereo not drawn) [drawing 128]
Efficacy in % [2]: 94%

CCC(C)(C)CC(C)c1ccccc1NC(=O)c1ccoc1C (stereo not drawn) [drawing 129]
Efficacy in % [2]: 100%

Cc1nc(C(F)(F)F)c(C(=O)Nc2ccccc2C(C)CC(C)(C)C)s1 (stereo not drawn) [drawing 130]
Efficacy in % [2]: 100%
